Test results published in the NIST ThermoML archive (doi:10.1021/acs.jced.6b00168).

Assay: mn = molality of the nth substance listed, in mol/kg
Settings: 100 kPa, Liquid; for speed of sound: Frequency=3 MHz, Sing-around technique in a fixed-path interferometer; for mass density: Vibrating tube method

CC(C)C[C@H](N)C(=O)O [L-leucine] + O
Settings | mass density, 288.15 K [kg/m3] | mass density, 298.15 K [kg/m3] | mass density, 308.15 K [kg/m3] | mass density, 318.15 K [kg/m3] | speed of sound, 288.15 K [m/s] | speed of sound, 298.15 K [m/s] | speed of sound, 308.15 K [m/s] | speed of sound, 318.15 K [m/s]
m1 = 0.00991 | 999.363 | 997.29 | 994.279 | 990.433 | 1468 | 1497 | 1520.5 | 1537
m1 = 0.02042 | 999.615 | 997.535 | 994.535 | 990.663 | 1469.3 | 1498.2 | 1521.5 | 1538
m1 = 0.04026 | 1000.09 | 998.005 | 994.994 | 991.098 | 1471.8 | 1500.4 | 1523.5 | 1539.8
m1 = 0.06014 | 1000.6 | 998.476 | 995.441 | 991.533 | 1474.2 | 1502.6 | 1525.5 | 1541.7
m1 = 0.0802 | 1001.07 | 998.929 | 995.893 | 991.972 | 1476.7 | 1504.9 | 1527.5 | 1543.5
m1 = 0.1002 | 1001.57 | 999.402 | 996.345 | 992.41 | 1479.2 | 1507.1 | 1529.5 | 1545.3
m1 = 0.1246 | 1002.13 | 999.979 | 996.896 | 992.945 | 1482.3 | 1509.8 | 1532 | 1547.6
m1 = 0.1502 | 1002.71 | 1000.56 | 997.446 | 993.506 | 1485.5 | 1512.7 | 1534.6 | 1550

CC(C)C[C@H](NC(=O)CN)C(=O)O [glycyl-L-leucine] + O
Settings | mass density, 288.15 K [kg/m3] | mass density, 298.15 K [kg/m3] | mass density, 308.15 K [kg/m3] | mass density, 318.15 K [kg/m3] | speed of sound, 288.15 K [m/s] | speed of sound, 298.15 K [m/s] | speed of sound, 308.15 K [m/s] | speed of sound, 318.15 K [m/s]
m1 = 0.01036 | 999.623 | 997.544 | 994.554 | 990.713 | 1468.4 | 1497.4 | 1521 | 1537.6
m1 = 0.02041 | 1000.14 | 998.07 | 995.045 | 991.171 | 1470.1 | 1499 | 1522.6 | 1539.1
m1 = 0.04005 | 1001.13 | 999.05 | 995.995 | 992.11 | 1473.3 | 1502 | 1525.5 | 1542
m1 = 0.06009 | 1002.13 | 999.995 | 996.94 | 993.02 | 1476.6 | 1505.2 | 1528.5 | 1544.9
m1 = 0.08023 | 1003.08 | 1000.95 | 997.866 | 993.927 | 1479.9 | 1508.3 | 1531.5 | 1547.9
m1 = 0.09965 | 1004.02 | 1001.9 | 998.802 | 994.85 | 1483.1 | 1511.3 | 1534.4 | 1550.7
m1 = 0.1502 | 1006.4 | 1004.28 | 1001.19 | 997.236 | 1491.4 | 1519.2 | 1542 | 1558.2
m1 = 0.2014 | 1008.79 | 1006.66 | 1003.57 | 999.61 | 1499.8 | 1527.1 | 1549.7 | 1565.7
